Like-named read-outs stand apart in the source and are kept apart here.
Assay: Oral spray bitterness masking taste test by volunteers with Coptis chinensis standard bitter solution
Assay type: in vivo, healthy volunteers
Design: key to bitterness value after drug: bitterness value 0.5–5.5; 1 = none, 5 = unbearable; key to Reduction of bitterness: drop in bitterness value (0.5–5.5 scale) from initial
Settings: for Duration >: retention time until bitterness rises; for inhibition in vivo at 0.2 %: Homo sapiens, read-out: Reduction range; for bitterness value after drug: initial bitterness 4.0, 16 cases
Procedure: Purpose of the experiment: it is to screen out compounds that take effect within 5 seconds, last for 30-120 seconds, and it is expected, by using such kind of compounds, the taste of the drug cannot be felt during the duration (30-120 seconds) when taking the drug.
Principle of the experiment: simulate the process of taking medicine and using the taste masking agents, first spray about 0.5 ml of oral spray on the throat (3 times), and after it takes effect quickly, taste 10 ml of bitter standard solution to screen drugs that can be used in advance and can mask the bitter taste.
• 1: Volunteer screening. The research team strictly screened the recruited volunteers and finally selected healthy volunteers as subjects. They signed informed consent forms before the experiment; • 2: Standard bitterness sample preparation. The bitterness of the samples was divided into five levels, and each level was assigned a certain bitterness value range; • 3: The sensory standard was corrected by the oral taste evaluation method, that is, the sensory standard was corrected by comparing the taste evaluation of the volunteers with the established bitterness value of the reference sample group. Specific steps: when the volunteers are doing the oral tasting test, the reference solutions of various concentrations are placed in the tasting cups, and the volunteers hold one of the solutions in their mouths, time it, and rinse their mouths by using the solution so that the bitter taste perception area at the root and sides of the tongue can fully feel the bitter taste of the drug. […] Then dilute all the selected taste masking drugs, prepare the solution, take 10 ml and put it into the spray bottle, spray it into the mouth 3 times, stay for 5 seconds, drink 10 ml of standard bitterness solution, feel and record the bitterness value, keep the standard bitterness solution in the mouth until the bitterness rises, and record the retention time. • 5: Quality control. […] Since the experimental objects are biological samples and there are individual differences between different subjects, there may be individual outliers in the experimental test data. The Grubbs test method was used to exclude outliers in the data, and then the experimental data were plotted in tables and curves for data analysis.
It is necessary to process the experimental data. Specifically, the Grubbs test method was used to perform a circular test and elimination of outliers on the data, and a bilateral test was used to eliminate outliers in the oral test. Considering the characteristics of biological samples, the detection level was selected as 0.1 and the elimination level was selected as 0.05 in this experiment.
The experimental medicinal material processing method mentioned in the above technical scheme is as follows: Preparation of bitter standard solution, use 10 g of Coptis chinensis powder, add 100 ml of pure water above 90 degrees, stir, let stand for 20 minutes, take the supernatant for use, determine the standard bitterness of 4.0 degrees by oral tasting, dilute 5 times, determine the standard bitterness of 2.0 degrees, dilute 2.0 degrees again 5 times, determine the standard bitterness of 0.5 degrees. Compare with the bitterness scoring table, (level 1 means “no bitterness or almost no bitterness”, the bitterness value is 0.5˜1.5; level 2 means “slightly bitter”, the bitterness value is 1.5˜2.5; level 3 means “bitter but acceptable”, the bitterness value is 2.5˜3.5; level 4 means “very bitter, but still tolerable”, the bitterness value is 3.5˜4.5; level 5 means “unbearable bitterness”, the bitterness value is 4.5˜5.5). Adjust the judgment and cognition of bitterness.
The standard bitterness solution used in this experiment to verify the experimental effect is a 4.0 degree bitterness solution of Coptis chinensis prepared according to the above method.

[1] = 0.2% solution in 60% ethanol as oral spray
[2] = 0.2% solution in 60% ethanol as oral spray, relative to original bitterness 4.0
[3] = concentration 0.001% in 60% ethanol
[4] = concentration 0.005% in 60% ethanol
[5] = concentration 0.02% in 60% ethanol
[6] = concentration 0.10% in 60% ethanol
[7] = concentration 0.50% in 60% ethanol

SMILES | Duration > [1] [s] | inhibition in vivo at 0.2 % [2] [%] | bitterness value after drug [3] | bitterness value after drug [4] | bitterness value after drug [5] | bitterness value after drug [6] | bitterness value after drug [7] | Reduction of bitterness (0.2% solution in 60% ethanol as oral spray, original bitterness average 4.0, average of 31 cases) | Reduction range [2] [%] | inhibition in vivo at 0.2 % (po) [%]
O=CC=Cc1ccccc1 [Cinnamaldehyde, 3-phenyl-2-propenal] | > 50 | 72.5 | 3.5 | 2.6 | 1.5 | 1.1 | 1.2 |  |  | 
CC(C)=CCCC(C)=CC=O [Citral, citral] | > 30 | 57.5 | 3.7 | 2.8 | 2.1 | 1.7 | 1.9 |  |  | 
C=CCc1ccc(OC(C)=O)c(OC)c1 [Eugenol acetate] | > 60 | 60 | 3.8 | 3.2 | 2.3 | 1.6 | 1.4 |  |  | 
CCCCC[C@H](O)CC(=O)CCc1ccc(O)c(OC)c1 [Gingerol, 6-gingerol] | > 20 | 55 | 4 | 2.4 | 2.1 | 1.8 | 1.8 |  |  | 
C=CC(C)(O)CCC=C(C)C (centres unmarked) [Linalool, linalool] | > 30 | 52.5 | 3.5 | 2.5 | 2.1 | 1.9 | 1.9 |  |  | 
CC1CCC(C(C)C)C(=O)C1 (centres unmarked) [Menthone, 5-methyl-2-isopropylcyclohexanone] | > 30 | 70 | 2.5 | 2.1 | 1.4 | 1.2 | 1.1 |  |  | 
CC(C)[C@@H]1CC[C@@H](C)C[C@H]1OC(=O)CCC(=O)O [Menthyl succinate] | > 10 |  | 3.2 | 2.8 | 2.6 | 2.4 | 2.1 | 1.6 | 40.00 | 
COc1cc(C(=O)O)ccc1O [Vanillic acid, 3-methoxy-4-hydroxybenzoic acid] | > 50 | 27.5 |  |  |  |  |  |  |  | 
COc1ccc(CCN(C)CCCC(C#N)(c2ccc(OC)c(OC)c2)C(C)C)cc1OC (centres unmarked) [Verapamil, 5-((3,4-dimethoxyphenylethyl)methylamino)-2-(3,4-dimethoxyphenyl)-2-isopropylvaleronitrile, reference compound] |  |  |  |  |  |  |  |  |  | 0

Reference: patent publication US20250108023A1, “Products for Masking Bitterness” (The Third People's Hospital of Henan Province, priority 2023, published 2025)
